Assay results as given in paper PMC12676778, “Long-tailed class I myosins rely on tail-mediated phosphoinositide recognition for specific membrane recruitment” (Cell Communication and Signaling : CCS, 2025).

What was measured:
[1] = test system: Dictyostelium cells; experiment: Myosin-1 localization in LY294002-treated (PI(3,4,5)P3-depleted) cells during endocytosis, confocal imaging; type: cell-based, Dictyostelium discoideum; conditions: 20 µM, starving cells
Method: Microtubule depolymerization rates were quantified by measuring individual microtubule length reduction over time using Andor Solis software. Cellular localization of fluorescently tagged myosins and time-lapse imaging were performed on an inverted Leica TCS SP2 AOBS confocal microscope and a Leica DMi8 M system equipped with a 63×/1.4 NA oil immersion objective. Bright-field fluorescence microscopy employed an Olympus IX81 inverted microscope with a 60×/1.49 NA oil immersion lens (ApoN, Olympus). For imaging, cells were seeded on glass-bottom dishes (Ibidi), washed twice with MES buffer (20 mM MES, pH 6.8, 0.2 mM CaCl₂, 2 mM MgCl₂), and maintained in this buffer during acquisition. Phagocytic uptake assays were performed following a 2-hour starvation, after which heat-killed yeast particles were added and time-lapse images recorded. […] Image processing was performed using Leica Confocal Software, and quantitative analysis was conducted with ImageJ (NIH, Bethesda, MD, USA). Fluorescence intensity profiles were obtained by drawing lines along the regions of the cups, as illustrated in Fig. 5. Fluorescence data were normalized to the maximum intensity and interpolated using the interpolation algorithm in Origin to account for variations in cup length. Frames showing association of myosin-1C or myosin-1D with the cups were quantified. […]

[2] = target: T1, Myosin-1C-tail (Dictyostelium discoideum, UniProt P42522); experiment: liposome co-sedimentation, YFP fluorescence of supernatant; type: binding; conditions: PolyPIPosomes (5% PIP, 95% PE + PC), accessible lipid; 10 mM Tris pH 7.5, 100 mM NaCl, 1 mM EGTA, room temperature
T1 construct: gene myoC; GST and/or YFP tags kept; E. coli Rosetta pLysS
T1 sequence (P42522 699-1182 limits assumed): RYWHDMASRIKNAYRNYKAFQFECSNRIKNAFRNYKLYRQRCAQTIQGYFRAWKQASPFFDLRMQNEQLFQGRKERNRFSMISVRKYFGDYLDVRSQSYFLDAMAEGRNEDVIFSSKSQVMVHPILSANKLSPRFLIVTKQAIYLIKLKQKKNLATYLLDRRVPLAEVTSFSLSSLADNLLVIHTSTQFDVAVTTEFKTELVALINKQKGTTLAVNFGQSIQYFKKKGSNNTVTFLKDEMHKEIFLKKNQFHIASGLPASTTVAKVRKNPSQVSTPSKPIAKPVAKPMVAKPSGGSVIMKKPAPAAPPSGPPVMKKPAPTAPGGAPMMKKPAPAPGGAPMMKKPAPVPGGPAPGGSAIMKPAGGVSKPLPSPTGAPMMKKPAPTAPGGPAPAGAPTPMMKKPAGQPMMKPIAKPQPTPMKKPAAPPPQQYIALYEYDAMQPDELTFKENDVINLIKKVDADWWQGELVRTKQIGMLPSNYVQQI
Excerpt: liposome co-sedimentation, YFP fluorescence of supernatant on Myosin-1C-tail

[3] = target: T2, Myosin-1D-tail (Dictyostelium discoideum, UniProt P34109); experiment: as above; type: binding; conditions: PolyPIPosomes (5% PIP, 95% PE + PC), accessible lipid; 10 mM Tris pH 7.5, 100 mM NaCl, 1 mM EGTA, room temperature
T2 construct: gene myoD; tail fragment (TH1, SH3, TH2), residues 717-1113; N-terminal GST and/or C-terminal YFP tags kept; E. coli Rosetta pLysS
T2 sequence (P34109 717-1109): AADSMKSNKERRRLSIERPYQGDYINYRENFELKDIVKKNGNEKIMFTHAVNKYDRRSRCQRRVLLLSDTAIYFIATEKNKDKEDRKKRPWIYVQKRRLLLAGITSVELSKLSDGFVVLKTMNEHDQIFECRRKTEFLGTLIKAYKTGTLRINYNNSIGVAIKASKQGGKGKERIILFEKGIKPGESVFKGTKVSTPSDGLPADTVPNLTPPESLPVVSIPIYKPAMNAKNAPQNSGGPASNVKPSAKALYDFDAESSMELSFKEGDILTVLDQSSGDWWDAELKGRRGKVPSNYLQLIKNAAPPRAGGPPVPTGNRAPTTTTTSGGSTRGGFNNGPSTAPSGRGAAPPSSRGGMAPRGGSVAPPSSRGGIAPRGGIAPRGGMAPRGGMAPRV
Excerpt: liposome co-sedimentation, YFP fluorescence of supernatant on Myosin-1D-tail

[4] = target: T3, Myosin-1B-tail (Dictyostelium discoideum, UniProt P34092); experiment: as above; type: binding; conditions: PolyPIPosomes (5% PIP, 95% PE + PC), accessible lipid; 10 mM Tris pH 7.5, 100 mM NaCl, 1 mM EGTA, room temperature
T3 construct: gene myoB; tail fragment (TH1, TH2, SH3), residues 717-1111; N-terminal GST and/or C-terminal YFP tags kept; E. coli Rosetta pLysS
T3 sequence (P34092 717-1111): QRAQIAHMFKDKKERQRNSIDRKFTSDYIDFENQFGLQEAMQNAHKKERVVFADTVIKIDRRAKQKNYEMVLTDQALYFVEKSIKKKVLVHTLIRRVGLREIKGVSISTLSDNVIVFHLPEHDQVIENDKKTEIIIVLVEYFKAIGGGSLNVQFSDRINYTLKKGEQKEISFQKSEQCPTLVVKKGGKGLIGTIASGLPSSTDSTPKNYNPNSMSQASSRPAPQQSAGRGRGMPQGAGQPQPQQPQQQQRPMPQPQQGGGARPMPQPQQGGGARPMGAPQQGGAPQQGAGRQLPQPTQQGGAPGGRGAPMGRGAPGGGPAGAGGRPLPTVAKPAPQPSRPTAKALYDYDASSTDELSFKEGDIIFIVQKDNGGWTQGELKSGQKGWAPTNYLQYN
Excerpt: liposome co-sedimentation, YFP fluorescence of supernatant on Myosin-1B-tail

Compound | cortical actin dynamics and association of actin with the early endosome [1] | localization of myosin-1C and myosin-1D with endocytic cups and endosomal membranes [1] | Kd [2] | Kd [3] | Kd [4]
O=c1cc(N2CCOCC2)oc2c(-c3ccccc3)cccc12 [LY294002] | did not disrupt | almost fully abolished | – | – | –
PI(3)P | – | – | 4 ± 0.3 µM | 1.7 ± 0.3 µM | –
PI(5)P | – | – | 0.5 ± 0.1 µM | – | 7.7 ± 0.6 µM
PI(3,4,5)P3 | – | – | 2.5 ± 0.3 µM | 0.3 ± 0.04 µM | –
PI(3,4)P2 | – | – | – | – | 2.2 ± 0.4 µM
PI(3,5)P2 | – | – | 0.6 ± 0.1 µM | 0.8 ± 0.1 µM | –
PI(4)P | – | – | 0.4 ± 0.1 µM | 1.2 ± 0.2 µM | –
PI(4,5)P2 | – | – | – | 0.7 ± 0.1 µM | –
